The target of the experiment is HIV-1 protease (Human immunodeficiency virus type 1 group M subtype B, UniProt P04585). Description: biochemical. The conditions noted are these: for inhibition at 0.123 µM: read-out: HIV-1 Protease % Inhib, dose 0.123 uM. In a few lines:
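Percent inhibition derived from fluorescent cleavage product separated by filtration after streptavidin-bead capture of intact biotin/FITC substrate. Reaction: enzyme (10 μl, 0.1 μM stock) with substrate (20 μl, 0.2 μM stock) and compound, 1 h at room temperature in dark, pH 5.5 acetate buffer with 1.0 M NaCl and 0.05% NP-40.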

[1] abbreviates: read-out: HIV-1 Protease % Inhib, dose 0.370 uM.
[2] abbreviates: read-out: HIV-1 Protease % Inhib, dose 1.100 uM.
The mark [3] stands for this setting: read-out: HIV-1 Protease % Inhib, dose 3.300 uM.
[4] abbreviates: read-out: HIV-1 Protease % Inhib, dose 10.000 uM.
[5] abbreviates: read-out: HIV-1 Protease % Inhib, dose 30.000 uM.
The mark [6] stands for this setting: read-out: HIV-1 Protease % Inhib.
The mark [7] stands for this setting: dose 1.100 uM, read-out: HIV-1 Protease % Inhib.
Where [8] appears, read: dose 3.300 uM, read-out: HIV-1 Protease % Inhib.
Setting [9] is: dose 10.000 uM, read-out: HIV-1 Protease % Inhib.
[10] abbreviates: dose 30.000 uM, read-out: HIV-1 Protease % Inhib.

Like-named read-outs stand apart in the source and are kept apart here.

Consider `Cc1ccc(S(=O)(=O)Nc2cccc(C(c3c(O)c4c(oc3=O)CCCCCC4)C3CC3)c2)cc1` (centres unmarked) [Example 325, N-[3-[Cyclopropyl(5,6,7,8,9,10-hexahydro-4-hydroxy-2-oxo-2H-cycloocta[b]pyran-3-yl)methyl]phenyl]4-methyl-benzenesulfonamide], for which the inhibition at 0.123 µM was found to be 59.8%. Also, the inhibition at 0.37 µM under setting [1] was 86.6%. In addition, the inhibition at 1.1 µM under setting [2] stood at 95.6%. Further, the inhibition at 3.3 µM under setting [3] is 105%. The inhibition at 10 µM under setting [4] stood at 115%. Under setting [5], the inhibition at 30 µM is 115%.

`CCCCS(=O)(=O)Nc1cccc(C(c2c(O)c3c(oc2=O)CCCCCC3)C2CC2)c1` (centres unmarked) [Example 326, N-[3-[Cyclopropyl(5,6,7,8,9,10-hexahydro-4-hydroxy-2-oxo-2H-cycloocta[b]pyran-3-yl)methyl]phenyl]-1-butanesulfonamide]: the inhibition at 0.123 µM was determined as 51.6%. The inhibition at 0.37 µM under setting [1] was determined as 92.6%. Also, under setting [2], the inhibition at 1.1 µM was 102%. Under setting [3], the inhibition at 3.3 µM was determined as 106%. The inhibition at 10 µM under setting [4] turned out to be 114%. The inhibition at 30 µM under setting [5] came to 121%.

Turning to `CC(C)S(=O)(=O)Nc1cccc(C(c2c(O)c3c(oc2=O)CCCCCC3)C2CC2)c1` (centres unmarked) [Example 328, N-[3-[Cyclopropyl(5,6,7,8,9,10-hexahydro-4-hydroxy-2-oxo-2H-cycloocta[b]pyran-3-yl)methyl]phenyl]-2-propanesulfonamide], the inhibition at 0.123 µM stood at 11.9%. Further, the inhibition at 0.37 µM under setting [1] was determined as 46%. Also, the inhibition at 1.1 µM under setting [2] amounted to 86.6%. Besides, the inhibition at 3.3 µM under setting [3] came out at 106%. Besides, the inhibition at 10 µM under setting [4] was 114%. For the same compound, the inhibition at 30 µM under setting [5] worked out at 111%.

As for `Cc1cccc(C)c1S(=O)(=O)Nc1cccc(C(c2c(O)c3c(oc2=O)CCCCCC3)C2CC2)c1` (centres unmarked) [Example 329, N-[3-[Cyclopropyl(5,6,7,8,9,10-hexahydro-4-hydroxy-2-oxo-2H-cycloocta[b]pyran-3-yl)methyl]phenyl]-2,6-dimethyl-benzenesulfonamide], under setting [6], the inhibition at 0.37 µM is 10.2%, the inhibition at 1.1 µM was 42.2%, the inhibition at 3.3 µM is 75.3% and the inhibition at 10 µM was 91.8%. The inhibition at 30 µM under setting [6] was determined as 102%.

For `Cc1ccccc1S(=O)(=O)Nc1cccc(C(c2c(O)c3c(oc2=O)CCCCCC3)C2CC2)c1` (centres unmarked) [Example 330, N-[3-[Cyclopropyl(5,6,7,8,9,10-hexahydro-4-hydroxy-2-oxo-2H-cycloocta[b]pyran-3-yl)methyl]phenyl]-2-methyl-benzenesulfonamide], the inhibition at 0.123 µM was determined as 47.2%. Further, the inhibition at 0.37 µM under setting [1] was 83.8%. In addition, the inhibition at 1.1 µM under setting [2] turned out to be 106%. Also, under setting [3], the inhibition at 3.3 µM was determined as 109%. Moreover, the inhibition at 10 µM under setting [4] stood at 115%. Moreover, under setting [5], the inhibition at 30 µM came out at 106%.

As for `COc1cccc(OC)c1S(=O)(=O)Nc1cccc(C(c2c(O)c3c(oc2=O)CCCCCC3)C2CC2)c1` (centres unmarked) [Example 334, N-[3-[Cyclopropyl(5,6,7,8,9,10-hexahydro-4-hydroxy-2-oxo-2H-cycloocta[b]pyran-3-yl)methyl]phenyl]-2,6-dimethoxy-benzenesulfonamide], the inhibition at 0.37 µM (dose 0.370 uM, read-out: HIV-1 Protease % Inhib) was determined as 13.6%. Moreover, under setting [7], the inhibition at 1.1 µM was 42.3%. Further, the inhibition at 3.3 µM under setting [8] worked out at 69%. Under setting [9], the inhibition at 10 µM stood at 87.6%. Besides, the inhibition at 30 µM under setting [10] amounted to 89.5%.

`COc1ccc(S(=O)(=O)Nc2cccc(C(c3c(O)c4c(oc3=O)CCCCCC4)C3CC3)c2)cc1OC` (centres unmarked) [Example 335, N-[3-[Cyclopropyl(5,6,7,8,9,10-hexahydro-4-hydroxy-2-oxo-2H-cycloocta[b]pyran-3-yl)methyl]phenyl]-3,4-dimethoxy-benzenesulfonamide]: the inhibition at 0.123 µM worked out at 48.7%. Also, the inhibition at 0.37 µM under setting [1] was 82.9%. The inhibition at 1.1 µM under setting [2] came out at 90.3%. In addition, the inhibition at 3.3 µM under setting [3] amounted to 96.8%. Under setting [4], the inhibition at 10 µM was 96.5%. For the same compound, the inhibition at 30 µM under setting [5] came out at 106%.

With `Cc1cccc(S(=O)(=O)Nc2cccc(C(c3c(O)c4c(oc3=O)CCCCCC4)C3CC3)c2)c1` (centres unmarked) [Example 336, N-[3-[Cyclopropyl(5,6,7,8,9,10-hexahydro-4-hydroxy-2-oxo-2H-cycloocta[b]pyran-3-yl)methyl]phenyl]-3-methyl-benzenesulfonamide], the inhibition at 0.123 µM amounted to 73.5%. For the same compound, the inhibition at 0.37 µM under setting [1] was 87.3%. Moreover, under setting [2], the inhibition at 1.1 µM is 93%. Further, the inhibition at 3.3 µM under setting [3] came out at 94.6%. Further, under setting [4], the inhibition at 10 µM stood at 103%. Further, the inhibition at 30 µM under setting [5] was 108%.

In the case of `N#Cc1ccccc1S(=O)(=O)Nc1cccc(C(c2c(O)c3c(oc2=O)CCCCCC3)C2CC2)c1` (centres unmarked) [Example 339, 2-Cyano-N-[3-[cyclopropyl(5,6,7,8,9,10-hexahydro-4-hydroxy-2-oxo-2H-cycloocta[b]pyran-3-yl)methyl]phenyl]-benzenesulfonamide], the inhibition at 0.123 µM amounted to 53.5%. The inhibition at 0.37 µM under setting [1] came to 81.3%. In addition, the inhibition at 1.1 µM under setting [2] worked out at 94.9%. The inhibition at 3.3 µM under setting [3] turned out to be 99.2%. Also, the inhibition at 10 µM under setting [4] is 105%. Further, under setting [5], the inhibition at 30 µM was found to be 99.8%.

Regarding `CCCc1ccc(S(=O)(=O)Nc2cccc(C(c3c(O)c4c(oc3=O)CCCCCC4)C3CC3)c2)cc1` (centres unmarked) [Example 342, N-[3-[Cyclopropyl(5,6,7,8,9,10-hexahydro-4-hydroxy-2-oxo-2H-cycloocta[b]pyran-3-yl)methyl]phenyl]4-propyl-benzenesulfonamide], the inhibition at 0.123 µM was determined as 42%. The inhibition at 0.37 µM under setting [1] stood at 72.9%. Under setting [2], the inhibition at 1.1 µM was 88.2%. The inhibition at 3.3 µM under setting [3] is 87.8%. For the same compound, the inhibition at 10 µM under setting [4] is 108%. Besides, under setting [5], the inhibition at 30 µM stood at 105%.

In the case of `CCCCCCCCCCCCS(=O)(=O)Nc1cccc(C(c2c(O)c3c(oc2=O)CCCCCC3)C2CC2)c1` (centres unmarked) [Example 344, N-[3-[Cyclopropyl(5,6,7,8,9,10-hexahydro-4-hydroxy-2-oxo-2H-cycloocta[b]pyran-3-yl)methyl]phenyl]-1-dodecanesulfonamide], the inhibition at 1.1 µM under setting [7] was 11.8%. In addition, under setting [8], the inhibition at 3.3 µM is 32.7%. Besides, under setting [9], the inhibition at 10 µM stood at 63.2%. For the same compound, the inhibition at 30 µM under setting [10] amounted to 81.8%.

Consider `CC(C)c1ccc(S(=O)(=O)Nc2cccc(C(c3c(O)c4c(oc3=O)CCCCCC4)C3CC3)c2)cc1` (centres unmarked) [Example 345, N-[3-[Cyclopropyl(5,6,7,8,9,10-hexahydro-4-hydroxy-2-oxo-2H-cycloocta[b]pyran-3-yl)methyl]phenyl]-4-(1-methylethyl)-benzenesulfonamide], for which the inhibition at 0.123 µM was 50%. In addition, the inhibition at 0.37 µM under setting [1] is 77%. Moreover, the inhibition at 1.1 µM under setting [2] was 90.4%. In addition, the inhibition at 3.3 µM under setting [3] is 101%. Also, the inhibition at 10 µM under setting [4] was 105%. Under setting [5], the inhibition at 30 µM was 91.8%.

Consider `Nc1ccc(S(=O)(=O)Nc2cccc(C(c3c(O)c4c(oc3=O)CCCCCC4)C3CC3)c2)cc1` (centres unmarked) [Example 348 (First Title Compound), 4-Amino-N-[3-[cyclopropyl(5,6,7,8,9,10-hexahydro-4-hydroxy-2-oxo-2H-cycloocta[b]pyran-3-yl)methyl]phenyl]-benzenesulfonamide], for which the inhibition at 0.123 µM is 28.1%. Besides, the inhibition at 0.37 µM under setting [1] stood at 80.7%. Moreover, under setting [2], the inhibition at 1.1 µM turned out to be 103%. Under setting [3], the inhibition at 3.3 µM turned out to be 108%. Besides, the inhibition at 10 µM under setting [4] worked out at 113%. Also, the inhibition at 30 µM under setting [5] came to 109%.

(Values after patent publication US5686486A, “4-hydroxy-benzopyran-2-ones and 4-hydroxy-cycloalkyl[b]pyran-2-ones useful to treat retroviral infections” (priority 1995, dated 1997).)
